Assays:
[1] = biological target: T1, RpBgl8 (Reticulitermes perilucifugus, UniProt A0A7G5VX36); experiment: pNPG hydrolysis with added glucose; type: biochemical
T1 construct: forward primer encodes MSALKF

[2] = biological target: T2, RpBgl8 (Reticulitermes perilucifugus, UniProt A0A7G5VX36, F124W); experiment: pNPG hydrolysis with added glucose; type: biochemical; conditions: 5 mM pNPG, phosphate buffer pH 7.0, 37 °C, reference of the reduction (no glucose or wild type) not told
T2 construct: forward primer encodes MSALKF
T2 sequence (A0A7G5VX36 entry or part of it F124W): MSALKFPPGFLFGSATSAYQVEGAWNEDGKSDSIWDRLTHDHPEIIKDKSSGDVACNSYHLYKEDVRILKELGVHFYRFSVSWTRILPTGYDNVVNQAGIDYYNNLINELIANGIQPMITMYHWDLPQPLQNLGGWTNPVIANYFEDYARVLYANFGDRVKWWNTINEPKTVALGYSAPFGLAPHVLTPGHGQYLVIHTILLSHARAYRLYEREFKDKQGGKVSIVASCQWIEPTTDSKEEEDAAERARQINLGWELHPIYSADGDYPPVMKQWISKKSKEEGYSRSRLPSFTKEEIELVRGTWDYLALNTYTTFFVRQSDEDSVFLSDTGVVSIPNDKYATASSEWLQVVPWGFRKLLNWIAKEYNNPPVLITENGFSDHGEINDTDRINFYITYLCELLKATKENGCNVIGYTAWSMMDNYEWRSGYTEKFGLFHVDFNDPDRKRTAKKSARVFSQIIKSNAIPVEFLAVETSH

T1 sequence (A0A7G5VX36 entry or part of it): as the sequence (A0A7G5VX36 entry or part of it F124W) above, with W124F counted along it

- activity at 4 M [1]: 82%
- % reduction of activity at 4.0 M glucose [2]: 54.2%
Structure (SMILES): OC[C@H]1OC(O)[C@H](O)[C@@H](O)[C@@H]1O (some centres unmarked) [glucose]

Source: publication PMC11989107, “Biochemical and Structural Characterization of a Highly Glucose-Tolerant β-Glucosidase from the Termite Reticulitermes perilucifugus” (International Journal of Molecular Sciences, 2025)
